Assay [1] has as its system cerulein-induced acute pancreatitis and associated pulmonary injury. The experiment in a line: cerulein-induced acute pancreatitis in rats, oral dihydro-resveratrol. Type of assay: in vivo, Sprague-Dawley rats. An excerpt: Among the several established animal models, repetitive intraperitoneal (i.p.) injection of cholecystokinin secretagogue, cerulein, is the most widely used and a highly reproducible method for the production of an experimental acute pancreatitis. Followed by a single shot of lipopolysaccharide (LPS), pulmonary injury characterized by neutrophil sequestration in the lung tissues and increased permeability of the alveolar membrane barrier is often observed as an acute pancreatitis associated complication. For the diagnosis of the onset of acute pancreatitis, bulky leakage of digestive enzymes, namely α-amylase, into the bloodstream is regarded as the principal pathological parameter. For evaluating the severity of acute pancreatitis and the associated pulmonary injury, morphological alterations of organ architecture including interstitial edema, cellular damage, leukocyte infiltration and hemorrhage are characterized as the histological and/or pathological parameters. Besides histological examination, aberrant MPO activity is often measured for assessing the severity of neutrophil-mediated inflammatory condition. Both the local and systemic inflammatory responses can be further confirmed by the high levels of pro-inflammatory cytokines present in the homogenates of affected tissues. Moreover, glutathione depletion, a defense mechanism, is one of the most common parameters for assessing the severity of tissue injury.
Evaluation of biological activities. Sprague-Dawley rats aged 28 days weighing in the range of 70 to 90 g were randomly assigned into 6 groups of 6 to 8 individuals. The rats were housed with an ambient temperature of 23±2° C., a relative humidity of 60 to 80% and a 12-h light/dark cycle. Prior to the experiment, the rats were starved overnight but allowed with free access to water. Experimental acute pancreatitis was induced in the rats by six hourly i.p. injections of cerulein at the supramaximally stimulating dose (50 μg/kg) followed by a single dose of LPS at 7.5 mg/kg 1 h after the last cerulein injection, and this group of rats was designated as the cerulein group. The control group received injections of 0.9% saline instead of cerulein in the same volume and at same time intervals. The treatment groups given with cerulein and oral doses of dihydro-resveratrol (10, 20 or 50 mg/kg) were designated as Cerulein+D-res 10 or 20 or 50 mg/kg. The therapeutic intervention was given 30 minutes after the first cerulein injection for three consecutive hours. Upon scarification, pancreata were immediately removed, weighed, trimmed from fat and fixed in 4% paraformaldehyde-phosphate buffered saline overnight at 4° C. Samples were then processed, embedded in paraffin wax, sectioned and subjected to H&E staining. Levels of TNF-α in pancreatic and pulmonary samples were determined using commercial ELISA kits. Tissue homogenates were subjected to biochemical assays for the evaluation of MPO activity and glutathione content.

Assay [2] has as its system LTC-14 cells (pancreatic stellate cells). Kind of assay: Western blotting of α-SMA and FN1 in TGF-β-challenged LTC-14 PSCs. Type of assay: cell-based, rat. How it is done:
LTC-14 cells were cultured at 37° C. under a humidified condition of 95% air and 5% CO2 in IMDM supplemented with 10% fetal bovine serum (FBS). Cells used in all the experiment were among passages 9 to 25. LTC-14 cells were seeded at a density of 1×10^5/well in a 12-well plate, and incubated with recombinant TGF-β at 5 ng/mL with dihydro-resveratrol at 0, 1, 5, 10 and 20 μg/mL in IMDM supplemented with 0.2% FBS for 24 hours. Cells were then harvested for protein extraction and Western blotting analysis or immunofluorescent staining.
Total proteins of the LTC-14 cells are extracted using RIPA lysis buffers containing protease inhibitors. Cell lysates were loaded and separated by SDS-polyacrylaminde gel electrophoresis. After wet electroblotting, proteins were transferred onto PVDF membranes (Bio-rad), blocked with 5% non-fat milk, probed with antibodies and visualized by utilization of an ECL kit (GE Healthcare).
Control was not treated with Resv or any stilbenoids. Total proteins were extracted and analyzed using Western blotting.
Total proteins were extracted and analyzed using Western blotting.

Assay [3] relates to human melanoma A375 cell line. Kind of assay: MTT cell viability assay, A375. Particulars: A-375, 24 h. It is filed as cell-based. On the procedure: (§1) The human colorectal carcinoma HCT-116 cell line, human pancreatic ductal adenocarcinoma PANC-1 cell line, human melanoma A375 cell line and human embryonic kidney HEK293 cell line were purchased from the American Type Culture Collection. Cells were cultured in high glucose DMEM growth medium supplemented with 10% fetal bovine serum, penicillin and streptomycin (100 U) in a humidified atmosphere of 5% CO2, 95% air at 37° C. Upon the addition of dihydro-resveratrol (D-res) to the HCT-116, PANC-1, A375 or HEK293 cells seeded at a density of 8000 cells per well in a 96-well plate format, the viability of the testing cells was determined 24 h post treatment using the (3-(4,5-dimethylthiazol-2-yl)-2,5-diphenyltetrazolium bromide) tetrazolium (MTT) reduction assay and expressed as growth inhibition of 50% (GI50, Table 6).
For orientation: Tetrazolium dyes change colour on reduction, which living cells bring about.

Assay [4] has as its system human colorectal carcinoma HCT-116 cell line. Kind of assay: MTT cell viability assay, HCT-116. Type of assay: cell-based. Particulars: HCT-116 colorectal carcinoma, 24 h. How it is done: as §1
The subject of assay [5] is human pancreatic ductal adenocarcinoma PANC-1 cell line. Kind of assay: MTT cell viability assay, PANC-1. Particulars: PANC-1 pancreatic ductal adenocarcinoma, 24 h. Type of assay: cell-based. How it is done: as §1
The test system of a further assay is Trichophyton rubrum. The experiment in a line: anti-fungal growth inhibition, T. rubrum. It is filed as cell-based. Particulars: Trichophyton rubrum, 168 h.

Usually GI50 stands for the concentration that inhibits growth by half. Read a low GI50 as greater sensitivity of the cells. The term inhibition denotes the relative decrease from the control value, in per cent. For the molecule `Oc1ccc(CCc2cc(O)cc(O)c2)cc1` [Dihydro-resveratrol, trans-3,5,4′-trihydroxybibenzyl], the “Plasma α-amylase activities (mean)” value in assay [1] (Cerulein + D-Res 10 mg (oral 10 mg/kg)) is recorded as 0.2891 U/μl/minute; in assay [1] (Cerulein + D-Res 20 mg (oral 20 mg/kg), #p<0.05 vs cerulein group) it was 0.2498# U/μl/minute; in assay [1] (Cerulein + D-Res 50 mg (oral 50 mg/kg), #p<0.05 vs cerulein group), 0.2431# U/μl/minute. The “MPO activities in pancreatic and pulmonary tissues” value in assay [1] (oral) is “significantly reduced”. In assay [1] (oral), the “ameliorative effect on reducing pancreatic edema compared with trans-resveratrol” value is recorded as “more promising than that of trans-resveratrol”. Also, the “glutathione level in cerulein-induced pancreata” value in assay [1] (oral) is given as “significantly suppressed glutathione depletion”. Besides, in assay [1] (oral, ELISA), the “levels of TNF-α in pancreatic and pulmonary tissues” value is given as “significantly reduced”. For the same molecule, the “focal expansion of interlobular septae, cytoplasmic shrinkage and leukocyte infiltration in pancreatic parenchyma” value in assay [1] (oral, H&E) was “remarkably reduced”. The “pulmonary wall thickening and hemorrhage in lung tissues” value in assay [1] (oral, H&E) is recorded as “significantly improved”. Moreover, the “pancreatic edema (weight ratio of pancreas to body)” value in assay [1] (oral, not less than 20 mg/kg) is listed as “notably reduced the pancreatic edema”. Further, the “expression levels of α-SMA and FN1” value in assay [2] (rat PSCs upon challenge of TGF-β) is reported as “significantly attenuate”. Besides, in assay [2] (rat PSCs, TGF-β), the “anti-fibrotic effect in PSCs among the testing stilbenoids” value is reported as “most potent anti-fibrotic effect”. Further, the GI50 in assay [3] is 107 ± 3.37 µM; in assay [4], 102 ± 5.21 µM; in assay [5], 116 ± 3.09 µM. In addition, in the assay with Trichophyton rubrum (read-out: Inhibition rate (25 μM)), the inhibition at 25 µM was 2.75%. Also, in the assay with Trichophyton rubrum (read-out: Inhibition rate (50 μM)), the inhibition at 50 µM amounted to 6.84%. Moreover, the inhibition at 100 µM in the assay with Trichophyton rubrum (read-out: Inhibition rate (100 μM)) amounted to 22.5%.
